What was measured:
Type in all cases: in vivo
[1] = tested on: sicklepod (Cassia obtusifolia, CASOB); assay: Pre-emerge test, greenhouse herbicide activity screening; conditions: phytotoxicity rating 0-100, 14 days after application
Outline: (§1)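 Sandy loam pots; pre-emerge: sown 1 d pre-spray, surface-watered after, then bottom-watered. Post-emerge: sown 8–21 d before, 2–3 leaf stage, + 0.25% v/v NIS, bottom-watered. Acetone, 187 l/ha track spray, 15–1000 g ai/ha. 0–100 injury score, day 14.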

[2] = tested on: ivyleaf morningglory (Ipomoea hederacea, IPOHE); assay: as above; conditions: phytotoxicity rating 0-100, 14 days after application
Outline: as §1

[3] = tested on: green foxtail (Setaria viridis, SETVI); assay: as above; conditions: phytotoxicity rating 0-100, 14 days after application
Outline: as §1

[4] = tested on: johnsongrass (Sorghum halepense, SORHA); assay: as above; conditions: phytotoxicity rating 0-100, 14 days after application
Outline: as §1

[5] = tested on: velvetleaf (Abutilon theophrasti, ABUTH); assay: as above; conditions: phytotoxicity rating 0-100, 14 days after application
Outline: as §1

[6] = tested on: lambsquarters (Chenopodium album, CHEAL); assay: as above; conditions: phytotoxicity rating 0-100, 14 days after application
Outline: as §1

[7] = tested on: large crabgrass (Digitaria sanguinalis, DIGSA); assay: as above; conditions: phytotoxicity rating 0-100, 14 days after application
Outline: as §1

[8] = tested on: barnyardgrass (Echinochloa crus-galli, ECHCG); assay: as above; conditions: phytotoxicity rating 0-100, 14 days after application
Outline: as §1

[9] = tested on: redroot pigweed (Amaranthus retroflexus, AMARE); assay: as above; conditions: phytotoxicity rating 0-100, 14 days after application
Outline: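 Herbicidal damage is scored 0 (none) to 100 (complete plant death) two weeks after a simulated field spray. Rates span 15–1000 g ai/ha, delivered in acetone at 187 l/ha. For post-emergence treatments, plants have 2–3 leaves and the spray carries 0.25% v/v non-ionic surfactant.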

[10] = tested on: field corn (Zea mays L., var. Dekalb 535, CORN); assay: Pre-emerge test, crop safety; conditions: crop damage rating 0-100, 14 days after application
Outline: as §1

[11] = tested on: upland rice (Oryza sp., var. Tebonnet, RICE); assay: Pre-emerge test, crop safety; conditions: crop damage rating 0-100, 14 days after application
Outline: as §1

[12] = tested on: field corn (Zea mays L., var. Dekalb 535, CORN); assay: Post-emerge test, crop safety; conditions: post-emerge, 14 days after application, rating scale 0-100
Outline: as §1

[13] = tested on: upland rice (Oryza sp., var. Tebonnet, RICE); assay: Post-emerge test, crop safety; conditions: post-emerge, 14 days after application, rating scale 0-100
Outline: as §1

[14] = tested on: sicklepod (Cassia obtusifolia, CASOB); assay: Post-emerge test, greenhouse herbicide activity screening; conditions: post-emerge, 14 days after application, rating scale 0-100
Outline: (§2)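 Compounds in acetone were track-sprayed at 187 l/ha, 15–1000 g ai/ha, onto sandy loam pots. Pre-emerge seeds were sown one day before spraying, with surface watering afterwards. Post-emerge plants were at the 2–3 leaf stage and sprayed with 0.25% v/v non-ionic surfactant. Injury was rated 0–100 at 14 days.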

[15] = tested on: ivyleaf morningglory (Ipomoea hederacea, IPOHE); assay: as above; conditions: post-emerge, 14 days after application, rating scale 0-100
Outline: as §2

[16] = tested on: green foxtail (Setaria viridis, SETVI); assay: as above; conditions: post-emerge, 14 days after application, rating scale 0-100
Outline: as §2

[17] = tested on: johnsongrass (Sorghum halepense, SORHA); assay: as above; conditions: post-emerge, 14 days after application, rating scale 0-100
Outline: as §2

[18] = tested on: velvetleaf (Abutilon theophrasti, ABUTH); assay: as above; conditions: post-emerge, 14 days after application, rating scale 0-100
Outline: as §2

[19] = tested on: lambsquarters (Chenopodium album, CHEAL); assay: as above; conditions: post-emerge, 14 days after application, rating scale 0-100
Outline: as §2

[20] = tested on: large crabgrass (Digitaria sanguinalis, DIGSA); assay: as above; conditions: post-emerge, 14 days after application, rating scale 0-100
Outline: as §2

[21] = tested on: redroot pigweed (Amaranthus retroflexus, AMARE); assay: as above; conditions: post-emerge, 14 days after application
Outline: as §2

[22] = tested on: barnyardgrass (Echinochloa crus-galli, ECHCG); assay: as above; conditions: post-emerge, 14 days after application, rating scale 0-100
Outline: as §2

[23] = 63 g ai/ha, rating scale 0-100 (0 no damage, 100 complete death)
[24] = 250 g ai/ha, rating scale 0-100

Cn1c(C(F)(F)F)cc(=O)n(-c2c(F)cc(Cl)c(OCC#N)c2NC(=O)OCc2ccccc2)c1=O [4-23]
Pre-emerge Herbicidal Activity CASOB ([1]; 63 g ai/ha): 80
Pre-emerge Herbicidal Activity CASOB ([1]; 250 g ai/ha): 100
Pre-emerge Herbicidal Activity IPOHE ([2]; 63 g ai/ha): 100
Pre-emerge Herbicidal Activity IPOHE ([2]; 250 g ai/ha): 80
Pre-emerge Herbicidal Activity SETVI ([3]; 63 g ai/ha): 80
Pre-emerge Herbicidal Activity SETVI ([3]; 250 g ai/ha): 100
Pre-emerge Herbicidal Activity SORHA ([4]; 63 g ai/ha): 70
Pre-emerge Herbicidal Activity SORHA ([4]; 250 g ai/ha): 90
Pre-emerge Herbicidal Activity ABUTH ([5]; 63 g ai/ha): 100
Pre-emerge Herbicidal Activity ABUTH ([5]; 250 g ai/ha): 100
Pre-emerge Herbicidal Activity CHEAL ([6]; 63 g ai/ha): 100
Pre-emerge Herbicidal Activity CHEAL ([6]; 250 g ai/ha): 100
Pre-emerge Herbicidal Activity DIGSA ([7]; 63 g ai/ha): 80
Pre-emerge Herbicidal Activity DIGSA ([7]; 250 g ai/ha): 100
Pre-emerge Herbicidal Activity ECHCG ([8]; 63 g ai/ha): 80
Pre-emerge Herbicidal Activity ECHCG ([8]; 250 g ai/ha): 95
Pre-emerge Herbicidal Activity AMARE ([9]; 63 g ai/ha): 100
Pre-emerge Herbicidal Activity AMARE ([9]; 250 g ai/ha): 100
Pre-emerge Herbicidal Activity CORN ([10]; 63 g ai/ha): 35
Pre-emerge Herbicidal Activity CORN ([10]; 250 g ai/ha): 90
Pre-emerge Herbicidal Activity RICE ([11]; 63 g ai/ha): 60
Pre-emerge Herbicidal Activity RICE ([11]; 250 g ai/ha): 90
phytotoxicity rating CORN (crop damage) ([12]; 63 g ai/ha): 35
phytotoxicity rating CORN (crop damage) ([12]; 250 g ai/ha): 80
phytotoxicity rating RICE (crop damage) ([13]; 63 g ai/ha): 60
phytotoxicity rating RICE (crop damage) ([13]; 250 g ai/ha): 80
phytotoxicity rating CASOB ([14]; 63 g ai/ha): 80
phytotoxicity rating CASOB ([14]; 250 g ai/ha): 100
phytotoxicity rating IPOHE ([15]; 63 g ai/ha): 100
phytotoxicity rating IPOHE ([15]; 250 g ai/ha): 100
phytotoxicity rating SETVI ([16]; 63 g ai/ha): 40
phytotoxicity rating SETVI ([16]; 250 g ai/ha): 70
phytotoxicity rating SORHA ([17]; 63 g ai/ha): 10
phytotoxicity rating SORHA ([17]; 250 g ai/ha): 50
phytotoxicity rating ABUTH ([18]; 63 g ai/ha): 100
phytotoxicity rating ABUTH ([18]; 250 g ai/ha): 100
phytotoxicity rating CHEAL ([19]; 63 g ai/ha): 80
phytotoxicity rating CHEAL ([19]; 250 g ai/ha): 100
phytotoxicity rating DIGSA ([20]; 63 g ai/ha): 10
phytotoxicity rating DIGSA ([20]; 250 g ai/ha): 40
phytotoxicity rating AMARE [21, 23]: 100
phytotoxicity rating AMARE [21, 24]: 100
phytotoxicity rating ECHCG ([22]; 63 g ai/ha): 20
phytotoxicity rating ECHCG ([22]; 250 g ai/ha): 60

COc1c(Cl)cc(F)c(-n2c(=O)cc(C(F)(F)F)n(C)c2=O)c1NC(=O)OCc1ccc(C)c(C)c1 [4-26]
Pre-emerge Herbicidal Activity CASOB ([1]; 63 g ai/ha): 0
Pre-emerge Herbicidal Activity CASOB ([1]; 250 g ai/ha): 0
Pre-emerge Herbicidal Activity IPOHE ([2]; 63 g ai/ha): 0
Pre-emerge Herbicidal Activity IPOHE ([2]; 250 g ai/ha): 10
Pre-emerge Herbicidal Activity SETVI ([3]; 63 g ai/ha): 75
Pre-emerge Herbicidal Activity SETVI ([3]; 250 g ai/ha): 95
Pre-emerge Herbicidal Activity SORHA ([4]; 63 g ai/ha): 0
Pre-emerge Herbicidal Activity SORHA ([4]; 250 g ai/ha): 20
Pre-emerge Herbicidal Activity ABUTH ([5]; 63 g ai/ha): 80
Pre-emerge Herbicidal Activity ABUTH ([5]; 250 g ai/ha): 100
Pre-emerge Herbicidal Activity CHEAL ([6]; 63 g ai/ha): 100
Pre-emerge Herbicidal Activity CHEAL ([6]; 250 g ai/ha): 100
Pre-emerge Herbicidal Activity DIGSA ([7]; 63 g ai/ha): 10
Pre-emerge Herbicidal Activity DIGSA ([7]; 250 g ai/ha): 90
Pre-emerge Herbicidal Activity ECHCG ([8]; 63 g ai/ha): 0
Pre-emerge Herbicidal Activity ECHCG ([8]; 250 g ai/ha): 30
Pre-emerge Herbicidal Activity AMARE ([9]; 63 g ai/ha): 70
Pre-emerge Herbicidal Activity AMARE ([9]; 250 g ai/ha): 100
Pre-emerge Herbicidal Activity CORN ([10]; 63 g ai/ha): 0
Pre-emerge Herbicidal Activity CORN ([10]; 250 g ai/ha): 0
Pre-emerge Herbicidal Activity RICE ([11]; 63 g ai/ha): 0
Pre-emerge Herbicidal Activity RICE ([11]; 250 g ai/ha): 45
phytotoxicity rating CORN (crop damage) ([12]; 63 g ai/ha): 5
phytotoxicity rating CORN (crop damage) ([12]; 250 g ai/ha): 20
phytotoxicity rating RICE (crop damage) ([13]; 63 g ai/ha): 15
phytotoxicity rating RICE (crop damage) ([13]; 250 g ai/ha): 45
phytotoxicity rating CASOB ([14]; 63 g ai/ha): 30
phytotoxicity rating CASOB ([14]; 250 g ai/ha): 60
phytotoxicity rating IPOHE ([15]; 63 g ai/ha): 100
phytotoxicity rating IPOHE ([15]; 250 g ai/ha): 100
phytotoxicity rating SETVI ([16]; 63 g ai/ha): 20
phytotoxicity rating SETVI ([16]; 250 g ai/ha): 60
phytotoxicity rating SORHA ([17]; 63 g ai/ha): 10
phytotoxicity rating SORHA ([17]; 250 g ai/ha): 50
phytotoxicity rating ABUTH ([18]; 63 g ai/ha): 100
phytotoxicity rating ABUTH ([18]; 250 g ai/ha): 100
phytotoxicity rating CHEAL ([19]; 63 g ai/ha): 90
phytotoxicity rating CHEAL ([19]; 250 g ai/ha): 100
phytotoxicity rating DIGSA ([20]; 63 g ai/ha): 20
phytotoxicity rating DIGSA ([20]; 250 g ai/ha): 50
phytotoxicity rating AMARE [21, 23]: 100
phytotoxicity rating AMARE [21, 24]: 100
phytotoxicity rating ECHCG ([22]; 63 g ai/ha): 10
phytotoxicity rating ECHCG ([22]; 250 g ai/ha): 50

Reference: patent US6355799B1, “Substituted benzene compounds, process for their preparation, and herbicidal and defoliant compositions containing them” (ISK Americas Incorporated, priority 1997, dated 2002)
